Reference: ChEMBL document CHEMBL1201862, “PubChem BioAssay data set” (2004)
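Interpolation was linear, between the two tested concentrations surrounding the appropriate level; five concentrations were tested over 48 hours in 96-well plates. Here, GI50 denotes the concentration required for 50% inhibition of growth.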 The source made the active and inactive calls. Rule as the data show it: active = GI50 up to about 1.1 µM and inactive = higher.

How the values were obtained:
Assay in all cases: DTP human tumour cell line panel, 48 h
[1] = tested on: NCI/ADR-RES
[2] = tested on: SR
[3] = tested on: OVCAR-3
[4] = tested on: HOP-62
[5] = tested on: NCI-H226
[6] = tested on: KM12
[7] = tested on: HT-29
[8] = tested on: MCF7
[9] = tested on: NCI-H460
[10] = tested on: MDA-N
[11] = tested on: SNB-19
[12] = tested on: SN12C
[13] = tested on: RPMI-8226
[14] = tested on: OVCAR-8
[15] = tested on: DU-145
[16] = tested on: SK-MEL-28
[17] = tested on: NCI-H23
[18] = tested on: SK-MEL-5
[19] = tested on: CAKI-1
[20] = tested on: UACC-257
[21] = tested on: COLO 205
[22] = tested on: 786-0
[23] = tested on: SF-539
[24] = tested on: SF-268
[25] = tested on: LOX IMVI
[26] = tested on: ACHN
[27] = tested on: HCC 2998
[28] = tested on: BT-549
[29] = tested on: U-251
[30] = tested on: HCT-116
[31] = tested on: M14
[32] = tested on: T47D
[33] = tested on: A549
[34] = tested on: EKVX
[35] = tested on: SK-OV-3
[36] = tested on: HCT-15
[37] = tested on: HOP-92
[38] = tested on: MOLT-4
[39] = tested on: SNB-75
[40] = tested on: UO-31
[41] = tested on: K562
[42] = tested on: MDA-MB-435
[43] = tested on: A498
[44] = tested on: SK-MEL-2
[45] = tested on: CCRF-CEM
[46] = tested on: Malme-3M
[47] = tested on: UACC-62
[48] = tested on: TK-10
[49] = tested on: OVCAR-5
[50] = tested on: SF-295
[51] = tested on: PC-3
[52] = tested on: RXF 393
[53] = tested on: NCI-H522
[54] = tested on: MDA-MB-231
[55] = tested on: OVCAR-4
[56] = tested on: IGROV-1
[57] = tested on: Hs-578T
[58] = tested on: HL-60
[59] = tested on: SW-620

In the case of `O=c1[nH]c2ccc(C(F)(F)F)cc2nc1C(F)(F)F`, the GI50 [1] is reported as 28.1 µM (inactive), the GI50 [2] is reported as 39.4 µM (inactive) and the GI50 [3] is reported as 14.9 µM (inactive). The GI50 [4] was 18.3 µM (inactive), the GI50 [5] was 18.8 µM (inactive) and the GI50 [6] was 22.8 µM (inactive). The GI50 [7] was 29.2 µM (inactive), the GI50 [8] was 23 µM (inactive) and the GI50 [9] was 33.9 µM (inactive). For the same compound, the GI50 [10] was 35.7 µM (inactive), the GI50 [11] was 28 µM (inactive) and the GI50 [12] was 29.4 µM (inactive). The GI50 [13] was 30.6 µM (inactive), the GI50 [14] was 25.3 µM (inactive) and the GI50 [15] was 23.2 µM (inactive). The GI50 [16] was 28.8 µM (inactive), the GI50 [17] was 18.1 µM (inactive) and the GI50 [18] was 17.2 µM (inactive). For the same compound, the GI50 [19] was 30.3 µM (inactive), the GI50 [20] was 23.6 µM (inactive) and the GI50 [21] was 17.1 µM (inactive). The GI50 [22] was 35.2 µM (inactive), the GI50 [23] was 21.3 µM (inactive) and the GI50 [24] was 30.8 µM (inactive). For the same compound, the GI50 [25] was 20.7 µM (inactive), the GI50 [26] was 30.9 µM (inactive) and the GI50 [27] was 43.4 µM (inactive). The GI50 [28] was 22.2 µM (inactive), the GI50 [29] was 35 µM (inactive) and the GI50 [30] was 20.9 µM (inactive). For the same compound, the GI50 [31] was 31.9 µM (inactive), the GI50 [32] was 13.2 µM (inactive) and the GI50 [33] was 27.9 µM (inactive). The GI50 [34] was 29.2 µM (inactive), the GI50 [35] was 27.1 µM (inactive) and the GI50 [36] was 27.9 µM. The GI50 [37] was 9.4 µM (inactive), the GI50 [38] was 23.4 µM (inactive) and the GI50 [39] was 12.1 µM (inactive). For the same compound, the GI50 [40] was 20.7 µM (inactive), the GI50 [41] was 35.7 µM (inactive) and the GI50 [42] was 31.2 µM (inactive). For the same compound, the GI50 [43] was 25.7 µM (inactive), the GI50 [44] was 15 µM (inactive) and the GI50 [45] was 11.1 µM (inactive). The GI50 [46] was 21.2 µM (inactive), the GI50 [47] was 27.9 µM (inactive) and the GI50 [48] was 27.9 µM (inactive). The GI50 [49] was 35.6 µM (inactive), the GI50 [50] was 28.7 µM (inactive) and the GI50 [51] was 23.3 µM (inactive). For the same compound, the GI50 [52] was 5 µM (inactive), the GI50 [53] was 17.5 µM (inactive) and the GI50 [54] was 28.3 µM (inactive). The GI50 [55] was 36.6 µM (inactive) and the GI50 [56] was 22.8 µM (inactive).

`CN(C)Cc1cc(C(=O)/C=C/c2c(Cl)cccc2Cl)cc(CN(C)C)c1O` was tested, and the GI50 [1] was 4.57 µM (inactive), the GI50 [2] was 3.18 µM (inactive) and the GI50 [3] was 5.7 µM (inactive). For the same compound, the GI50 [4] was 7.85 µM (inactive), the GI50 [5] was 14.4 µM (inactive) and the GI50 [6] was 2.65 µM (inactive). For the same compound, the GI50 [7] was 3.07 µM (inactive), the GI50 [8] was 3.71 µM (inactive) and the GI50 [9] was 3.72 µM (inactive). The GI50 [10] was 3.67 µM (inactive), the GI50 [11] was 14.8 µM (inactive) and the GI50 [12] was 5.82 µM (inactive). The GI50 [13] was 4.78 µM (inactive), the GI50 [14] was 3.55 µM (inactive) and the GI50 [57] was 14 µM (inactive). The GI50 [15] was 8.2 µM (inactive), the GI50 [16] was 8.49 µM (inactive) and the GI50 [17] was 14.6 µM (inactive). For the same compound, the GI50 [18] was 3.76 µM (inactive), the GI50 [19] was 2.88 µM (inactive) and the GI50 [20] was 4.46 µM (inactive). The GI50 [21] was 2.96 µM (inactive), the GI50 [22] was 5.2 µM (inactive) and the GI50 [23] was 14.5 µM (inactive). For the same compound, the GI50 [24] was 11.9 µM (inactive), the GI50 [25] was 1.77 µM (inactive) and the GI50 [26] was 2.8 µM (inactive). For the same compound, the GI50 [27] was 19 µM (inactive), the GI50 [29] was 11.4 µM (inactive) and the GI50 [30] was 6.04 µM (inactive). The GI50 [31] was 4.91 µM (inactive), the GI50 [32] was 16.4 µM (inactive) and the GI50 [33] was 11.5 µM (inactive). For the same compound, the GI50 [34] was 10.9 µM (inactive), the GI50 [36] was 10.8 µM and the GI50 [37] was 3.05 µM (inactive). The GI50 [38] was 4.19 µM (inactive), the GI50 [39] was 3.34 µM (inactive) and the GI50 [40] was 2.79 µM (inactive). For the same compound, the GI50 [41] was 3.01 µM (inactive), the GI50 [42] was 9.2 µM (inactive) and the GI50 [58] was 2.07 µM (inactive). For the same compound, the GI50 [43] was 9.27 µM (inactive), the GI50 [45] was 3.74 µM (inactive) and the GI50 [46] was 3.69 µM (inactive). For the same compound, the GI50 [59] was 4.12 µM (inactive), the GI50 [48] was 14.4 µM (inactive) and the GI50 [49] was 18.2 µM (inactive). The GI50 [50] was 8.51 µM (inactive), the GI50 [51] was 5.64 µM (inactive) and the GI50 [52] was 5.7 µM (inactive). For the same compound, the GI50 [53] was 2.98 µM (inactive), the GI50 [54] was 4.61 µM (inactive) and the GI50 [55] was 8.55 µM (inactive). The GI50 [56] was 7.83 µM (inactive).
